Source: patent publication US20240174690A1, “ANNULATED 2-AMINO-3-CYANO THIOPHENES AND DERIVATIVES FOR THE TREATMENT OF CANCER” (BOEHRINGER INGELHEIM INTERNATIONAL GMBH, priority 2021, published 2024)
pIC50: −log10 of the molar value. In brackets after ≈: the same amount, converted by molar mass. Like-named read-outs stand apart in the source and are kept apart here.

Experiments:
[1] = system: KRAS G12C-dependent Ba/F3 cells; assay: Ba/F3 proliferation assay, KRAS G12C; type: cell-based; details: Mus musculus, BaF3, 72 h, AlamarBlue
In short: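 Proliferation of mutant-KRAS-driven Ba/F3 cells cultured without IL-3 is followed with AlamarBlue after compound addition. Curves are fitted from duplicate wells.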

[2] = system: NCI-H2122 cells; assay: NCI-H2122 CTG proliferation assay (120 h) (NSCLC, G12C); type: cell-based; details: Homo sapiens
In short: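 Proliferation was read by CellTiter-Glo luminescence after 120 h of compound exposure, starting one day after seeding 200 NCI-H2122 (G12C) cells per well in RPMI/10% FCS. RLU relative to DMSO wells gave percent viability, and four-parameter nonlinear regression gave IC50.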

[3] = system: AsPC-1 cells; assay: AsPC-1 CTG proliferation assay (120 h) (pancreatic cancer, G12D); type: cell-based; details: Homo sapiens, ASPC1
In short: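 CellTiter-Glo luminescence, normalised to DMSO wells, measured viability after 120 h compound exposure. Cells were AsPC-1 pancreatic cancer (G12D) plated at 2000 per well in RPMI/10% FCS the day before dosing. IC50 derived by four-parameter regression.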

[4] = system: LOVO cells; assay: LOVO CTG proliferation assay (120 h) (CRC, G13D); type: cell-based; details: Homo sapiens, CTG 120 h
In short: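 IC50 comes from a four-parameter fit of CellTiter-Glo viability, expressed as RLU relative to DMSO wells. Compound exposure lasted 120 h in LOVO cells seeded the day before at 1000 cells/well in DMEM with 10% fetal calf serum.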

[5] = Plasma protein binding assay (PPB), equilibrium dialysis, 10% FCS in PBS; type: in vitro ADME; details: bovine, read-out: PPB 10% FCS (% fu)
In short: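 Test compound (1-10 μmol/L) in 10% FCS in PBS was dialysed for 3-5 h at 37° C versus PBS ± dextran across a semipermeable membrane. LC-MS of both compartments after protein precipitation gave Cserum and Cbuffer, from which the unbound fraction fu was derived.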

[6] = Solubility measurement (DMSO solution method), McIlvaine buffer pH 4.5 or 6.8; type: physicochemical; details: aqueous buffer, kinetic from dmso stock, DMSO stock diluted to 250 μM, 24 h shaking at ambient temperature
In short: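 Filtrate concentration by LC-UV, calibrated to a known-concentration reference dissolved completely in acetonitrile/water (1:1). Samples came from 250 µM final dilutions of DMSO stock in pH 4.5 or 6.8 McIlvaine buffer, shaken 24 h at ambient temperature, then filtered.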

[7] = McIlvaine buffer pH 4.5, read-out: solubility pH 4.5
[8] = McIlvaine buffer pH 6.8, read-out: solubility pH 6.8

SMILES	pIC50 [1]	pIC50 [2]	pIC50 [3]	pIC50 [4]	fraction unbound [5]	solubility at 24 h [6, 7] [µg/mL]	solubility at 24 h [6, 8] [µg/mL]
C[C@H](Oc1cc(N2C[C@@H](N(C)C)[C@@H](F)C2)nc(-c2noc3c2CCC[C@@]32CCCc3sc(N)c(C#N)c32)n1)[C@@H]1CCCN1C [II-11]	6.62	5.45	5.85	6.42	0.89	> 150	> 141
C[C@H](Oc1cc(N2CC[C@H](N3CCCCC3)C2)nc(-c2noc3c2CCC[C@@]32CCCc3sc(N)c(C#N)c32)n1)[C@@H]1CCCN1C [II-12]	6.36	5.86	6.26	6.40	0.2	> 143	> 137
C[C@H](Oc1cc(N2CCN(C)C3(COC3)C2)nc(-c2noc3c2CCC[C@@]32CCCc3sc(N)c(C#N)c32)n1)[C@@H]1CCCN1C [II-13]	6.92	5.30	6.60	7.21	0.24	> 139	> 147
C[C@H](Oc1cc(N2CC[C@H](N3CCCC3)C2)nc(-c2noc3c2CCC[C@@]32CCCc3sc(N)c(C#N)c32)n1)[C@@H]1CCCN1C [II-14]	6.53	5.86	6.61	6.17	0.16	> 151	123 (≈ 196 µM)
C[C@H](Oc1cc(N2CC[C@H](N(C)C)C2)nc(-c2noc3c2CCC[C@@]32CCCc3sc(N)c(C#N)c32)n1)[C@@H]1C[C@@H](F)CN1C [II-15]	6.49	5.62	6.66	6.06	0.64	> 144	> 130
C[C@H]1CN(C)CCCN1c1cc(N2CC[C@H](N(C)C)C2)nc(-c2noc3c2CCC[C@@]32CCCc3sc(N)c(C#N)c32)n1 [II-16]	5.80	5.45	5.72	5.87	0.16	> 147	> 132
C[C@H](Oc1cc(-n2ccc(C(=O)N3CCCC3)n2)nc(-c2noc3c2CCC[C@@]32CCCc3sc(N)c(C#N)c32)n1)[C@@H]1CCCN1C [II-19]	8.30	7.72	6.06	7.68	0.04	89 (≈ 136 µM)	< 1
CNC(=O)c1ccn(-c2cc(O[C@@H](C)[C@@H]3CCCN3C)nc(-c3noc4c3CCC[C@@]43CCCc4sc(N)c(C#N)c43)n2)n1 [II-20]	8.70	5.69	5.99	6.80	0.14	83 (≈ 135 µM)	33 (≈ 53.8 µM)
C[C@H](Oc1cc(-n2ccc(C(N)=O)n2)nc(-c2noc3c2CCC[C@@]32CCCc3sc(N)c(C#N)c32)n1)[C@@H]1CCCN1C [II-21]	8.40	6.89	6.16	7.54	0.24	80 (≈ 133 µM)	34 (≈ 56.7 µM)
CCOC(=O)c1ccn(-c2cc(O[C@@H](C)[C@@H]3CCCN3C)nc(-c3noc4c3CCC[C@@]43CCCc4sc(N)c(C#N)c43)n2)n1 [II-23]	8.10	5.53	5.79	6.91	0.03	75 (≈ 119 µM)	< 1
C[C@H](Oc1cc(-n2ccc(C(=O)O)n2)nc(-c2noc3c2CCC[C@@]32CCCc3sc(N)c(C#N)c32)n1)[C@@H]1CCCN1C [II-24]	5.04	5.27	< 4.60	5.13	0.48	< 1	< 1
